Experimental findings from ChEMBL document CHEMBL1143567, “Hierarchical database screenings for HIV-1 reverse transcriptase using a pharmacophore model, rigid docking, solvation docking, and MM-PB/SA” (J Med Chem, 2005) are described below.

This assay has as its system Human immunodeficiency virus 1. Nature of the assay: Concentration required to inhibit 50% viral production of human immunodeficiency virus type 1 (HIV-1-IIIB). Format: functional, organism-based.

The structures appear in SMILES notation.

By IC50 is commonly meant the concentration that inhibits the measured activity by half. A higher IC50 goes with a need for much substance.

Turning to `CC(C)=CCOc1cc(NC(=S)c2ccoc2C)ccc1Cl` [UC 781], the IC50 was determined as 9 nM.

For `NC(=O)C(Nc1ccccc1[N+](=O)[O-])c1c(Cl)cccc1Cl` (stereo not given), it took 33 nM to reach half-maximal inhibition (IC50).

Consider `CCCCCC=C(c1cc(Br)c(OC)c(C(=O)OC)c1)c1cc(Br)c(OC)c(C(=O)OC)c1`, for which it took 16000 nM to reach half-maximal inhibition (IC50).

The compound `C=CCN1Cc2cccc3[nH]c(=O)n(c23)CC1C` (stereo not given) had an IC50 of 62000 nM.

On to `CC(C)Nc1cccnc1N1CCN(C(=O)c2cc3cc(NS(C)(=O)=O)ccc3[nH]2)CC1` [DELAVIRDINE], for which the IC50 was 1100 nM.

In turn, `O=C1c2ccccc2C2(c3ccccc3)SCCN12` (stereo not given) yielded a concentration for half-maximal inhibition (IC50) of 16 nM.

For the compound `CC(C)c1c(Cc2ccccc2)n(COCc2ccccc2)c(=O)[nH]c1=O`, the IC50 is 6 nM.

`CCN1c2ncccc2-c2ncc(C)n2-c2ccc(OC)nc21` gave an IC50 of 190 nM.

`CC1Oc2c3c(c4c(-c5ccccc5)cc(=O)oc4c2C(O)C1C)OC(C)(C)C=C3` (stereo not given) displayed an IC50 of 1400 nM.

The compound `CC(C)=CCN1Cc2cc(Cl)cc3nc(S)n(c23)CC1C` (stereo not given) [TIBO] showed an IC50 of 33 nM.

Regarding `CCN1c2cc([N+](=O)[O-])ccc2N(C)C(=O)c2cccnc21`, the IC50 came out at 400 nM.

`Fc1cccc(Cl)c1CCNC(=S)Nc1nccs1` gave an IC50 of 50 nM.

On to `COc1ccc2c(c1)N(C(=O)OC(C)C)C(CSC)C(S)=N2` (stereo not given), for which the midpoint of inhibition, the IC50, lay at 6 nM.

`O=C1Nc2ccc(Cl)cc2C(/C=C/C2CC2)(C(F)(F)F)N1` (stereo not given) displayed an IC50 of 0.4 nM.

As for `CCOCn1c(Cc2ccccc2)c(C(C)C)c(=O)[nH]c1=O` [EMIVIRINE], the IC50 amounted to 8 nM.

In turn, `CC(C)OC(=O)c1cc(NC(=S)OC(C)C)ccc1Cl` gave an IC50 of 29 nM.

On to `S=C(NCCc1ccccn1)Nc1ccc(Br)cn1` [TROVIRDINE], for which the IC50 stood at 20 nM.

The compound `Fc1cccc(F)c1CC/N=C(\S)Nc1ccc(Br)cn1` yielded an IC50 of 10 nM.

Turning to `CCC1=CC(NCc2nc3c(C)ccc(C)c3o2)C(=O)N=C1C` (stereo not given), 50 nM corresponded to half-maximal inhibition (IC50).

In the case of `CC(=O)c1ccc(C)cc1NC(C(N)=O)c1c(Br)cccc1Br` (stereo not given), the IC50 was 420 nM.

`O=C(O)C1=CC(=C(c2ccc(O)c(C(=O)O)c2)c2ccc(O)c(C(=O)O)c2)C=CC1=O` [AURINTRICARBOXYLIC ACID]: the IC50 was determined as 5000 nM.

The compound `Cc1c(Sc2ccccc2)n(COCCO)c(=S)[nH]c1=O` showed an IC50 of 1600 nM.

With `CC(C)c1nc(COC(N)=O)n(Cc2ccncc2)c1Sc1cc(Cl)cc(Cl)c1` [CAPRAVIRINE], the IC50 is 3.1 nM.

The compound `O=C1Nc2ccc(Cl)cc2[C@@](C#CC2CC2)(C(F)(F)F)O1` [EFAVIRENZ] came in with an IC50 of 2.93 nM.

For `CC(C)=CCN1Cc2c(Cl)ccc3[nH]c(=S)n(c23)C[C@@H]1C` [TIVIRAPINE], the IC50 stood at 3 nM.

Compound `Cc1c(Sc2ccccc2)n(COCCO)c(=O)[nH]c1=O` [HEPT] returned an IC50 of 7000 nM.

`O=C1Nc2ccc(Cl)cc2[C@@](C#CC2CC2)(C(F)(F)F)N1` displayed an IC50 of 0.36 nM.

The compound `S=C(NCCc1ccccc1)Nc1nccs1` came in with an IC50 of 1300 nM.

As for `CC(=O)c1ccc(C)cc1NC(C(N)=O)c1c(Cl)cccc1Cl` (stereo not given) [LOVIRIDE], the IC50 was found to be 100 nM.

Compound `CC(=O)c1ccccc1NC(C(N)=O)c1c(Cl)cccc1Cl` (stereo not given) came in with a 50% inhibitory concentration (IC50) of 26 nM.

On to `Cc1ccnc2c1NC(=O)c1cccnc1N2C1CC1` [NEVIRAPINE], for which inhibition was half-maximal at 200 nM (IC50).

Compound `CN1C(=O)c2ccccc2C1(N)c1ccccc1` (stereo not given) registered an IC50 of 10000 nM.

`Cc1c(O)nc(OC2CCCCC2)nc1Cc1ccccc1`: the IC50 amounted to 4700 nM.

Compound `CC1=C(C(=O)Nc2ccc(Cl)c(C(=O)OC(C)C)c2)SCCO1` came in with a half-maximal inhibitory concentration (IC50) of 42 nM.

`Cc1cc(C)cc(Cc2c(C(C)C)c(=O)[nH]c(=O)n2COCCO)c1` registered an IC50 of 2.7 nM.
